Test results: patent US20100311748A1, “HETEROCYCLIC AMIDES USEFUL FOR THE TREATMENT OF CANCER AND PSORIASIS” (ASTRAZENECA AB, priority 2007, published 2010)
One block for each compound: values may come before it.

System: Hedgehog pathway
Assay: Hedgehog Pathway Cellular Differentiation Assay (alkaline phosphatase production in C3H10T1/2 cells with Shh ligand)
Format: cell-based
Conditions: 72 h; for inhibition at 3 µM: C3H 10T1/2, 3 μM compound
Description: Hedgehog Pathway Cellular Differentiation Assay The ability of compounds of the invention to inhibit the Hedgehog pathway can be determined by the following cell differentiation assay. C3H10T1/2 cells were plated into 384 well plates at a concentration of 5000 cells/well in DMEM/10% FBS. The following day the media was changed to 20% conditioned media (low serum media DMEM/2% FBS+Shh ligand). Compounds were solubilized in 100% DMSO to a concentration of 10 mM and then serially diluted three fold in 100% DMSO. The highest concentration in the cell plate was 30 μM and the lowest was 3 nM. The compounds were then added to the cells. Cell plates were incubated with the compound for 72 h and then assayed for alkaline phosphatase production using pNp as a substrate. Briefly, after 72 h of incubation, the media was aspirated from the cells and washed with 30 μl of PBS. PBS was aspirated off the cells and 15 μl of 1×RIPA cell lysis buffer is added on to the cells. The cell plates are then incubated at −80° C. for 30 minutes to insure proper cell lysis. The plates were then thawed back to RT. The substrate solution containing pNp at 1 mg/mL in diethanolamine buffer pH 9.8 was then added onto the lysed cells. The plates were incubated at 30° C. for color development and read at an absorbance of 405 nm. The percent inhibition and IC50 value was then calculated from the absorbance data using standard procedures.

[1] = Mus musculus, Shh ligand conditioned media, alkaline phosphatase

Compound: Cc1ccc(-c2ncc[nH]2)cc1NC(=O)c1ccc(COc2ccccc2C#N)cc1 [Example 133, 4-[(2-cyanophenoxy)methyl]-N-[5-(1H-imidazol-2-yl)-2-methylphenyl]benzamide]
- inhibition at 3 µM [1]: 77%

Compound: Cc1ccc(-c2nccn2C)cc1NC(=O)c1ccc(OCc2cc(OCC3CC3)ccn2)cc1 [Example 98, 4-{[4-(cyclopropylmethoxy)pyridin-2-yl]methoxy}-N-[2-methyl-5-(1-methyl-1H-imidazol-2-yl)phenyl]benzamide]
- inhibition at 3 µM [1]: 78.4%

Compound: Cc1ccc(-c2ccncc2)cc1NC(=O)c1ccc(OCc2ccccn2)cc1 [Example 11, N-(2-methyl-5-pyridin-4-yl-phenyl)-4-(pyridin-2-ylmethoxy)benzamide]
- inhibition at 3 µM [1]: 75%

Compound: COc1cccnc1COc1ccc(C(=O)Nc2cc(-c3ncc[nH]3)ccc2C)cc1 [Example 135, N-(5-(1H-imidazol-2-yl)-2-methylphenyl)-4-((3-methoxypyridin-2-yl)methoxy)benzamide]
- inhibition at 3 µM [1]: 76.9%

Compound: Cc1ccc(-c2ncc[nH]2)cc1NC(=O)c1ccc(C(F)(F)F)nc1C [Example 147, N-[5-(1H-imidazol-2-yl)-2-methyl-phenyl]-2-methyl-6-(trifluoromethyl)pyridine-3-carboxamide]
- inhibition at 3 µM [1]: 19.3%

Compound: Cc1ccc(-c2nc3ccccc3s2)cc1NC(=O)c1ccc(OCc2ccccn2)cc1 [Example 17, N-(5-benzothiazol-2-yl-2-methyl-phenyl)-4-(pyridin-2-ylmethoxy)benzamide]
- inhibition at 3 µM [1]: 53.5%

Compound: Cc1ccc(-c2ncc[nH]2)cc1NC(=O)c1ccc(OCc2cc(N3CCN(CCO)CC3)ccn2)cc1 [Example 90, 4-({4-[4-(2-hydroxyethyl)piperazin-1-yl]pyridin-2-yl}methoxy)-N-[5-(1H-imidazol-2-yl)-2-methylphenyl]benzamide]
- inhibition at 3 µM [1]: 61.5%

Compound: Cc1ccc(-c2cccc(N)n2)cc1NC(=O)c1ccc(OCc2ccccn2)cc1 [Example 8, N-[5-(6-aminopyridin-2-yl)-2-methyl-phenyl]-4-(pyridin-2-ylmethoxy)benzamide]
- inhibition at 3 µM [1]: 66.5%

Compound: Cc1ccc(-c2ncc[nH]2)cc1NC(=O)c1ccc(OCC2CCCCN2C(=O)OC(C)(C)C)cc1 (stereo not shown) [Example 141, tert-butyl 2-((4-(5-(1H-imidazol-2-yl)-2-methylphenylcarbamoyl)phenoxy)methyl)piperidine-1-carboxylate]
- inhibition at 3 µM [1]: 85.3%

Compound: COc1cccc(COc2ccc(C(=O)Nc3cc(-c4ncc[nH]4)ccc3C)cc2)c1 [Example 41, N-(5-(1H-imidazol-2-yl)-2-methylphenyl)-4-(3-methoxybenzyloxy)benzamide]
- inhibition at 3 µM [1]: 51.9%

- IC50 (Mus musculus, C3H 10T1/2, Shh ligand conditioned media, alkaline phosphatase (pNp, 405 nm)): < 3 nM
Compound: Cc1ccc(-c2ncc(C)n2C)cc1NC(=O)c1ccc(OCc2ccccn2)cc1 [Example 20, N-[5-(1,5-dimethylimidazol-2-yl)-2-methyl-phenyl]-4-(pyridin-2-ylmethoxy)benzamide]
- inhibition at 3 µM [1]: 58.1%

Compound: Cc1ccc(-c2ncc[nH]2)cc1NC(=O)c1ccc2c(c1)OCCO2 [Example 151, N-[5-(1H-imidazol-2-yl)-2-methyl-phenyl]-2,5-dioxabicyclo[4.4.0]deca-7,9,11-triene-8-carboxamide]
- % Inhibition at 3 μM (3 μM compound, Shh ligand conditioned media, alkaline phosphatase): 21.9%

Compound: Cc1ccc(-c2c[nH]nn2)cc1NC(=O)c1ccc(OCc2ccccn2)cc1 [Example 114, N-(2-methyl-5-(1H-1,2,3-triazol-4-yl)phenyl)-4-(pyridin-2-ylmethoxy)benzamide]
- inhibition at 3 µM [1]: 73.2%

Compound: Cc1ccc(-c2ncc(CN3CCOCC3)s2)cc1NC(=O)c1ccc(OCc2ccccn2)cc1 [Example 12, N-[2-methyl-5-[5-(morpholin-4-ylmethyl)1,3-thiazol-2-yl]phenyl]-4-(pyridin-2-ylmethoxy)benzamide]
- inhibition at 3 µM [1]: 74.2%

Compound: Cc1ccc(-c2nc(CO)c[nH]2)cc1NC(=O)c1ccc(OCc2ccccn2)cc1 [Example 88, N-{5-[4-(hydroxymethyl)-1H-imidazol-2-yl]-2-methylphenyl}-4-(pyridin-2-ylmethoxy)benzamide]
- inhibition at 3 µM [1]: 84.7%
